Assay results reported in US20230072683A1, “PYRIDO-PYRIMIDIN DERIVATIVES AND PHARMACEUTICAL COMPOSITION, FOR USE IN PREVENTING OR TREATING PI3 KINASE RELATED DISEASES, COMPRISING SAME AS ACTIVE INGREDIENT” (BORYUNG PHARMACEUTICAL CO., LTD, priority 2019, published 2023).
Like-named read-outs stand apart in the source and are kept apart here. Values belong to the compound of their own block, whether it stands above or below them.

Legend:
DNA-PK(h) = DNA-PK(h) (Homo sapiens, UniProt P78527); assay: Evaluation of inhibitory activity against DNA-PK (HTRF kinase assay, GST-cMyc-p53 substrate); assay type: biochemical; settings: for inhibition at 0.01 µM: compound concentration 0.01 μM, read-out: EXP_VALUE(% Inhibition) DNA-PK(h) 0.01 μM; for inhibition at 0.1 µM: read-out: EXP_VALUE(% Inhibition) DNA-PK(h) 0.1 μM
Procedure, shortened: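 p53 Ser15 phosphorylation by human DNA-PK was measured by time-resolved FRET ratio (665/620 nm ×10000) using Eu-labelled anti-phospho-Ser15 and d2 anti-GST antibodies. Substrate GST-cMyc-p53 at 50 μM; Mg/ATP-initiated, 30 min at room temperature, EDTA stop.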

[1] = molecular target: PI3K-δ (PI3K(p1108/p857) (h)) (Homo sapiens, UniProt O00329); assay: Evaluation of inhibitory activity against PI3K-δ (HTRF kinase assay); assay type: biochemical; settings: for inhibition at 0.01 µM: compound concentration 0.01 μM, read-out: EXP_VALUE(% Inhibition) PI3K-δ 0.01 μM; for inhibition at 0.1 µM: read-out: EXP_VALUE(% Inhibition) PI3K-δ 0.1 μM
Procedure, shortened: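 HTRF read-out (665/620 nm ratio ×10000) used Eu-labelled anti-GST, GST-tagged GRP1 PH domain and streptavidin-allophycocyanin after EDTA/PIP3 stop.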

Sequence of PI3K-δ (PI3K(p1108/p857) (h)) (O00329 whole entry, the tested form may be a part): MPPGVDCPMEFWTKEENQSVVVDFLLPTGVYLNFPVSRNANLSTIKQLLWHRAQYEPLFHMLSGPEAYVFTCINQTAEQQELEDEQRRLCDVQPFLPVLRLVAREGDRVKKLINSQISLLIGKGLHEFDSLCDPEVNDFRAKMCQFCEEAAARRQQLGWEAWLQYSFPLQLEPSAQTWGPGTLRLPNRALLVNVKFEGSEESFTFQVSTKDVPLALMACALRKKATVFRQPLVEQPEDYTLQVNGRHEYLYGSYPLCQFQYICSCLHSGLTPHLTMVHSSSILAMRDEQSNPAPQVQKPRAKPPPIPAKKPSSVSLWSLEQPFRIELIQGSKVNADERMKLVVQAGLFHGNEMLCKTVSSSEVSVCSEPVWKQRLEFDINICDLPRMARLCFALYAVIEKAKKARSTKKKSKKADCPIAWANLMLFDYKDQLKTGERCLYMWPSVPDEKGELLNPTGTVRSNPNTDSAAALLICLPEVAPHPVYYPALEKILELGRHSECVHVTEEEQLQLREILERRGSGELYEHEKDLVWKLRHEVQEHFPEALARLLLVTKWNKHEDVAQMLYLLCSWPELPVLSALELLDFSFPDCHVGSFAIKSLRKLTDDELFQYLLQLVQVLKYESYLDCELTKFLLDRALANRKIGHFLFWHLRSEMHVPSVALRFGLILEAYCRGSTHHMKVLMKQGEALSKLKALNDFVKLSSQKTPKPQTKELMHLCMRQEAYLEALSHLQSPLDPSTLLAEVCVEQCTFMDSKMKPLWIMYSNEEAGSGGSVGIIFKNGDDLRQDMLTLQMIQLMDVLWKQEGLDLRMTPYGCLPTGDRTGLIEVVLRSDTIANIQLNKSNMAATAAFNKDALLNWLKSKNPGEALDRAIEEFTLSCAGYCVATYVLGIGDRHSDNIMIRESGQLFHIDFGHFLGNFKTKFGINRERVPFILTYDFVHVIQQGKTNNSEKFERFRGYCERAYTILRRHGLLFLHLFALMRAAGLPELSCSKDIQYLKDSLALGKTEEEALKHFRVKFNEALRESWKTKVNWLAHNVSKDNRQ
Sequence of PI3K-δ (PI3K(p1108/p857) (h)) (P27986 whole entry partner, the tested form may be a part): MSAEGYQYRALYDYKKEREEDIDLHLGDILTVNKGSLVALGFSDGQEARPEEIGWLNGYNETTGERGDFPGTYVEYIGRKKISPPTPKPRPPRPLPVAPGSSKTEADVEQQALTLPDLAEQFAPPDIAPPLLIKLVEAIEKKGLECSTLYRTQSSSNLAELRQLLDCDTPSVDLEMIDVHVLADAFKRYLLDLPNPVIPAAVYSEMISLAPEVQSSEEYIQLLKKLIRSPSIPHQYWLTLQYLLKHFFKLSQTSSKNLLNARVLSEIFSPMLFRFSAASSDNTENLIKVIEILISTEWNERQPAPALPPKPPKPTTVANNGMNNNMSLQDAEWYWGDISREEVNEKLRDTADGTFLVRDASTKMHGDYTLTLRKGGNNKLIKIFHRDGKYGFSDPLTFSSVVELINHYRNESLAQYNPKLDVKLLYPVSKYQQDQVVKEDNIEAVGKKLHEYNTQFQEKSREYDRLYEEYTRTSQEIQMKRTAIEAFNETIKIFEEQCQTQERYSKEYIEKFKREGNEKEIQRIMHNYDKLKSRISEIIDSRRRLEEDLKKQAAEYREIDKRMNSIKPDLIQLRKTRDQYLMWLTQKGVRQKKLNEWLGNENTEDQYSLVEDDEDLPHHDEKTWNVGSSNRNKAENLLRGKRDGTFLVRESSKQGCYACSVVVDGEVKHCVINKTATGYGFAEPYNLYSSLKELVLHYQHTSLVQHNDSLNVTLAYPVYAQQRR

Structure (SMILES): COc1cc(-c2cccc3cc([C@H](C)Nc4ncnc5[nH]ccc(=O)c45)n(-c4ccccc4)c(=O)c23)ccc1Cl [Example 100, (S)-4-((1-(8-(4-chloro-3-methoxyphenyl)-1-oxo-2-phenyl-1,2-dihydroisoquinolin-3-yl)ethyl)amino)pyrido[2,3-d]pyrimidin-5(8H)-one]
inhibition at 0.01 µM (DNA-PK(h)): 17%
inhibition at 0.1 µM (DNA-PK(h); compound concentration 0.1 μM): 54%
inhibition at 0.01 µM [1]: 82%
inhibition at 0.1 µM ([1]; compound concentration 0.1 μM): 104%

Structure (SMILES): C[C@H](Nc1ncnc2[nH]ccc(=O)c12)c1c(Cl)c2cccc(-c3ccc(-c4noc(C(C)(C)C)n4)cc3)c2c(=O)n1-c1ccccc1 [Example 161, (S)-4-((1-(8-(4-(5-(tert-butyl)-1,2,4-oxadiazol-3-yl)phenyl)-4-chloro-1-oxo-2-phenyl-1,2-dihydroisoquinolin-3-yl)ethyl)amino)pyrido[2,3-d]pyrimidin-5(8H)-one]
inhibition at 0.01 µM (DNA-PK(h)): 7%
inhibition at 0.01 µM [1]: 24%

Structure (SMILES): C[C@H](Nc1ncnc2[nH]ccc(=O)c12)c1c(Br)c2cccc(-c3ccc(N(C)C)cc3)c2c(=O)n1-c1ccccc1 [Example 16, (S)-4-((1-(4-bromo-8-(4-(dimethylamino)phenyl)-1-oxo-2-phenyl-1,2-dihydroisoquinolin-3-yl)ethyl)amino)pyrido[2,3-d]pyrimidin-5(8H)-one]
inhibition at 0.01 µM (DNA-PK(h)): 7%
inhibition at 0.1 µM (DNA-PK(h); compound concentration 0.1 μM): 53%
inhibition at 0.01 µM [1]: 51%
inhibition at 0.1 µM ([1]; compound concentration 0.1 μM): 88%

Structure (SMILES): C[C@H](Nc1ncnc2[nH]ccc(=O)c12)c1c(Cl)c2cccc(-c3cncc(N4CCOCC4)n3)c2c(=O)n1-c1ccccc1 [Example 210, (S)-4-((1-(4-chloro-8-(6-morpholinopyrazin-2-yl)-1-oxo-2-phenyl-1,2-dihydroisoquinolin-3-yl)ethyl)amino)pyrido[2,3-d]pyrimidin-5(8H)-one]
inhibition at 0.01 µM (DNA-PK(h)): 56%
inhibition at 0.01 µM [1]: 73%

Structure (SMILES): C[C@H](Nc1ncnc2[nH]ccc(=O)c12)c1c(Cl)c2cccc(N3CCC(NC(=O)OC(C)(C)C)CC3)c2c(=O)n1-c1ccccc1 [Example 77, tert-butyl(S)-(1-(4-chloro-1-oxo-3-(1-((5-oxo-5,8-dihydropyrido[2,3-d]pyrimidin-4-yl)amino)ethyl)-2-phenyl-1,2-dihydroisoquinolin-8-yl)piperidin-4-yl) carbamate]
inhibition at 0.01 µM (DNA-PK(h)): 9%
inhibition at 0.1 µM (DNA-PK(h); compound concentration 0.1 μM): 64%
inhibition at 0.01 µM [1]: 45%
inhibition at 0.1 µM ([1]; compound concentration 0.1 μM): 78%

Structure (SMILES): C[C@H](Nc1ncnc2[nH]ccc(=O)c12)c1c(Cl)c2cccc(C(=O)C3CC3)c2c(=O)n1-c1ccccc1 [Example 269, (S)-4-((1-(4-chloro-8-(cyclopropanecarbonyl)-1-oxo-2-phenyl-1,2-dihydroisoquinolin-3-yl)ethyl)amino)pyrido[2,3-d]pyrimidin-5(8H)-one]
inhibition at 0.01 µM (DNA-PK(h)): 26%
inhibition at 0.01 µM [1]: 37%

Structure (SMILES): C[C@H](Nc1ncnc2[nH]ccc(=O)c12)c1c(Cl)c2cccc(-c3cnc4c(c3)OCCO4)c2c(=O)n1-c1ccccc1 [Example 132, (S)-4-((1-(4-chloro-8-(2,3-dihydro-[1,4]dioxino[2,3-b]pyridin-7-yl)-1-oxo-2-phenyl-1,2-dihydroisoquinolin-3-yl)ethyl)amino)pyrido[2,3-d]pyrimidin-5(8H)-one]
inhibition at 0.01 µM (DNA-PK(h)): 89%
inhibition at 0.1 µM (DNA-PK(h); compound concentration 0.1 μM): 102%
inhibition at 0.01 µM [1]: 91%
inhibition at 0.1 µM ([1]; compound concentration 0.1 μM): 94%

Structure (SMILES): C[C@H](Nc1ncnc2[nH]ccc(=O)c12)c1c(Cl)c2cccc(-c3cnc(N4CCOCC4)cn3)c2c(=O)n1-c1ccccc1 [Example 207, (S)-4-((1-(4-chloro-8-(5-morpholinopyrazin-2-yl)-1-oxo-2-phenyl-1,2-dihydroisoquinolin-3-yl)ethyl)amino)pyrido[2,3-d]pyrimidin-5(8H)-one]
inhibition at 0.01 µM (DNA-PK(h)): 52%
inhibition at 0.01 µM [1]: 57%

Structure (SMILES): COc1cc(-c2cccc3c(Cl)c([C@H](C)Nc4ncnc5[nH]ccc(=O)c45)n(-c4ccccc4)c(=O)c23)cc(OC)c1OC [Example 103, (S)-4-((1-(4-chloro-1-oxo-2-phenyl-8-(3,4,5-trimethoxyphenyl)-1,2-dihydroisoquinolin-3-yl)ethyl)amino)pyrido[2,3-d]pyrimidin-5(8H)-one]
inhibition at 0.01 µM (DNA-PK(h)): 91%
inhibition at 0.1 µM (DNA-PK(h); compound concentration 0.1 μM): 101%
inhibition at 0.01 µM [1]: 91%
inhibition at 0.1 µM ([1]; compound concentration 0.1 μM): 103%

Structure (SMILES): C[C@H](Nc1ncnc2[nH]ccc(=O)c12)c1c(Cl)c2cccc(-c3ccc(OC(F)(F)F)cc3)c2c(=O)n1-c1ccccc1 [Example 247, (S)-4-((1-(4-chloro-1-oxo-2-phenyl-8-(4-(trifluoromethoxy)phenyl)-1,2-dihydroisoquinolin-3-yl)ethyl)amino)pyrido[2,3-d]pyrimidin-5(8H)-one]
inhibition at 0.01 µM (DNA-PK(h)): 21%
inhibition at 0.01 µM [1]: 75%

Structure (SMILES): C[C@H](Nc1ncnc2[nH]ccc(=O)c12)c1c(Cl)c2cccc(N3CCN(C4CCN(C)CC4)CC3)c2c(=O)n1-c1ccccc1 [Example 11, (S)-4-((1-(4-chloro-8-(4-(1-methylpiperidin-4-yl)piperazin-1-yl)-1-oxo-2-phenyl-1,2-dihydroisoquinolin-3-yl)ethyl)amino)pyrido[2,3-d]pyrimidin-5(8H)-one]
inhibition at 0.01 µM (DNA-PK(h)): 18%
inhibition at 0.1 µM (DNA-PK(h); compound concentration 0.1 μM): 53%
inhibition at 0.01 µM [1]: 21%
inhibition at 0.1 µM ([1]; compound concentration 0.1 μM): 61%

Next, values leading:

inhibition at 0.01 µM (DNA-PK(h)): 28%
inhibition at 0.01 µM [1]: 11%
Structure (SMILES): C[C@H](Nc1ncnc2[nH]ccc(=O)c12)c1c(Cl)c2cccc(Nc3cccnc3)c2c(=O)n1-c1ccccc1 [Example 347, (S)-4-((1-(4-chloro-1-oxo-2-phenyl-8-(pyridin-3-ylamino)-1,2-dihydroisoquinolin-3-yl)ethyl)amino)pyrido[2,3-d]pyrimidin-5(8H)-one]

inhibition at 0.01 µM (DNA-PK(h)): 9%
inhibition at 0.1 µM (DNA-PK(h); compound concentration 0.1 μM): 16%
inhibition at 0.01 µM [1]: 3%
inhibition at 0.1 µM ([1]; compound concentration 0.1 μM): 14%
Structure (SMILES): C[C@H](Nc1ncnc2[nH]ccc(=O)c12)c1c(Cl)c2cccc(-c3ccc(S)cc3)c2c(=O)n1-c1ccccc1 [Example 95, (S)-4-((1-(4-chloro-8-(4-mercaptophenyl)-1-oxo-2-phenyl-1,2-dihydroisoquinolin-3-yl)ethyl)amino)pyrido[2,3-d]pyrimidin-5(8H)-one]

inhibition at 0.01 µM (DNA-PK(h)): 101%
inhibition at 0.01 µM [1]: 127%
Structure (SMILES): CNC(=O)c1ccc(-c2cccc3c(Cl)c([C@H](C)Nc4ncnc5[nH]ccc(=O)c45)n(-c4ccccc4)c(=O)c23)cn1 [Example 196, (S)-5-(4-chloro-1-oxo-3-(1-((5-oxo-5,8-dihydropyrido[2,3-d]pyrimidin-4-yl)amino)ethyl)-2-phenyl-1,2-dihydroisoquinolin-8-yl)-N-methylpicolinamide]

inhibition at 0.01 µM (DNA-PK(h)): 43%
inhibition at 0.01 µM [1]: 79%
Structure (SMILES): C[C@H](Nc1ncnc2[nH]ccc(=O)c12)c1c(Cl)c2cccc(-c3cnc(C#N)nc3)c2c(=O)n1-c1ccccc1 [Example 44, (S)-5-(4-chloro-1-oxo-3-(1-((5-oxo-5,8-dihydropyrido[2,3-d]pyrimidin-4-yl)amino)ethyl)-2-phenyl-1,2-dihydroisoquinolin-8-yl)pyrimidine-2-carbonitrile]

inhibition at 0.1 µM (DNA-PK(h); compound at 0.1 μM): 32%
inhibition at 0.1 µM ([1]; compound at 0.1 μM): 8%
Structure (SMILES): CCSc1cccc2c(Cl)c([C@H](C)Nc3ncnc4[nH]ccc(=O)c34)n(-c3ccccc3)c(=O)c12 [Example 434, (S)-4-((1-(4-chloro-8-(ethylthio)-1-oxo-2-phenyl-1,2-dihydroisoquinolin-3-yl)ethyl)amino)pyrido[2,3-d]pyrimidin-5(8H)-one]

inhibition at 0.01 µM (DNA-PK(h)): 54%
inhibition at 0.1 µM (DNA-PK(h); compound concentration 0.1 μM): 89%
inhibition at 0.01 µM [1]: 99%
inhibition at 0.1 µM ([1]; compound concentration 0.1 μM): 109%
Structure (SMILES): C[C@H](Nc1ncnc2[nH]ccc(=O)c12)c1c(Cl)c2cccc(-c3ccccc3)c2c(=O)n1-c1ccccc1 [Example 62, (S)-4-((1-(4-chloro-1-oxo-2,8-diphenyl-1,2-dihydroisoquinolin-3-yl)ethyl)amino)pyrido[2,3-d]pyrimidin-5(8H)-one]

inhibition at 0.1 µM (DNA-PK(h); compound at 0.1 μM): 32%
inhibition at 0.1 µM ([1]; compound at 0.1 μM): 44%
Structure (SMILES): C[C@H](Nc1ncnc2[nH]ccc(=O)c12)c1c(Cl)c2cccc(S(=O)(=O)c3ccccn3)c2c(=O)n1-c1ccccc1 [Example 414, (S)-4-((1-(4-chloro-1-oxo-2-phenyl-8-(pyridin-2-ylsulfonyl)-1,2-dihydroisoquinolin-3-yl)ethyl)amino)pyrido[2,3-d]pyrimidin-5(8H)-one]

inhibition at 0.01 µM (DNA-PK(h)): 84%
inhibition at 0.1 µM (DNA-PK(h); compound concentration 0.1 μM): 98%
inhibition at 0.01 µM [1]: 66%
inhibition at 0.1 µM ([1]; compound concentration 0.1 μM): 91%
Structure (SMILES): Cc1ccc(-c2cccc3c(Cl)c([C@H](C)Nc4ncnc5[nH]ccc(=O)c45)n(-c4ccccc4)c(=O)c23)o1 [Example 98, (S)-4-((1-(4-chloro-8-(5-methylfuran-2-yl)-1-oxo-2-phenyl-1,2-dihydroisoquinolin-3-yl)ethyl)amino)pyrido[2,3-d]pyrimidin-5(8H)-one]

inhibition at 0.01 µM (DNA-PK(h)): 56%
inhibition at 0.01 µM [1]: 74%
Structure (SMILES): C[C@H](Nc1ncnc2[nH]ccc(=O)c12)c1c(Cl)c2cccc(-c3ccc(C(C)(C)C)nc3)c2c(=O)n1-c1ccccc1 [Example 34, (S)-4-((1-(8-(6-(tert-butyl)pyridin-3-yl)-4-chloro-1-oxo-2-phenyl-1,2-dihydroisoquinolin-3-yl)ethyl)amino)pyrido[2,3-d]pyrimidin-5(8H)-one]

inhibition at 0.01 µM (DNA-PK(h)): 63%
inhibition at 0.01 µM [1]: 90%
Structure (SMILES): C[C@H](Nc1ncnc2[nH]ccc(=O)c12)c1c(Cl)c2cccc(-c3cnccn3)c2c(=O)n1-c1ccccc1 [Example 198, (S)-4-((1-(4-chloro-1-oxo-2-phenyl-8-(pyrazin-2-yl)-1,2-dihydroisoquinolin-3-yl)ethyl)amino)pyrido[2,3-d]pyrimidin-5(8H)-one]
